Laboratory results taken from patent US20190010158A1, “ANTITUMOR EFFECT POTENTIATOR COMPRISING PYRROLOPYRIMIDINE COMPOUND” (TAIHO PHARMACEUTICAL CO., LTD, priority 2015, published 2019).

What was measured:
carbonic anhydrase II = carbonic anhydrase II (Homo sapiens, UniProt P00918); conditions: background art, Non-patent Literature 8; cited from earlier work
[1] = background art, Non-patent Literature 7; decrease in plasma concentration; cited from earlier work
[2] = test system: tumor cell lines shown in Table 24; test: Example 2: combined use with tyrosine kinase inhibitor, cell growth inhibition test (IC50 ratio, CI); type: cell-based; conditions: MOLT-4; for CI: at ED50
[3] = test system: human acute myelogenous leukemia (AML) MV-4-11 cell lines; test: Example 17: tumor growth inhibition in mice, combinational treatment with gilteritinib; type: in vivo; conditions: MV-4-11 in mice; orally 3 mg/kg/day, days 1-14; day 15
Text: (§1) RTVn=TVn/TV1 (equation D)
(§2) BWCn (%)=(BWn−BW1)/BW1×100 (equation F)
The test ended on day 15.

[4] = test system: human acute myelogenous leukemia (AML) THP-1 cell lines; test: Example 21: tumor growth inhibition in mice, combinational treatment with azacytidine; type: in vivo; conditions: THP-1 in mice; intraperitoneally 20 mg/kg/day, days 1, 4, 8, 11, 15, 18; day 22
Text: as §1, §2
The test ended on day 22.

SMILES: NS(=O)(=O)OC[C@@H]1C[C@@H](n2ccc3c(N[C@H]4CCc5ccccc54)ncnc32)C[C@@H]1O [MLN4924, N-[(1S)-1-indanyl]-7-[(1R)-3α-hydroxy-4α-(sulfamoyloxymethyl)cyclopentyl]-7H-pyrrolo[2,3-d]pyrimidin-4-amine]
- inhibition of carbonic anhydrase II activity (carbonic anhydrase II): inhibits the activity
- transfer of administered drug to red blood cells in the blood [1]: transferred to red blood cells

SMILES: CCc1nc(C(N)=O)c(Nc2ccc(N3CCC(N4CCN(C)CC4)CC3)c(OC)c2)nc1NC1CCOCC1 [gilteritinib]
- CI ([2]; Reference Example Compound 55:other compound 1:20): 0.96
- CI ([2]; Reference Example Compound 55:other compound 1:60): 0.88
- Comprehensive Evaluation ([2]; combined use with Reference Example Compound 55): Additive (0.9-1.10)
- BWC15 (%) Mean ± SD [3]: 5.8 ± 3.0%
- RTV15 Mean ± SD [3]: 1.9 ± 0.5
- T/C15 (%) [3]: 41%

SMILES: Nc1ncn([C@@H]2O[C@H](CO)[C@@H](O)[C@H]2O)c(=O)n1 [azacytidine]
- BWC22 (%) Mean ± SD [4]: 3.6 ± 4.5%
- RTV22 Mean ± SD [4]: 8.8 ± 2.0
- T/C22 (%) [4]: 45%
